The values that follow come from publication PMC2726290, “Decoding of Methylated Histone H3 Tail by the Pygo-BCL9 Wnt Signaling Complex” (Molecular Cell, 2008).

The target in assay [1] is T1, dPHD-HD1 complex (Drosophila Pygo PHD with Lgs HD1) (Drosophila melanogaster, UniProt Q961D9+Q9V9W8).
T1 construct: Drosophila Pygo PHD (amino acids 747–808); GST (N, cleaved yes); made in house; host or cells: E. coli BL21-CodonPlus(DE3)-RIL
T1 sequence (Q9V9W8 747-808): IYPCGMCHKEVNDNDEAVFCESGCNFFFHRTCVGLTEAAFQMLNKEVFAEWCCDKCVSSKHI
T1 sequence (Q961D9 316-350 partner limits assumed): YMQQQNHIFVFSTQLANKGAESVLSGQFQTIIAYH
Briefly: ITC, histone tail peptides with Drosophila PHD-HD1 complex. Type of assay: binding. Here is the method:
(§1) ITC was carried out using a VP-ITC Microcal calorimeter (Microcal, Northhampton, MA, USA). Peptides were lyophilized against freshly prepared 20mM ammonium bicarbonate solution and resuspended in the ITC dialysis buffer (25mM Tris pH 8.0, 100mM NaCl and 2mM β-mercaptoethanol). Experiments were performed at 25 °C. During titration, 4-12µl aliquots of 0.5-1.0mM peptide solution was injected into a solution of 50µM protein at time intervals of 5 min. ITC data were corrected for the heat of dilution and analyzed using Origin (version 5.0) provided by the manufacturer. […]

For assay [2], the target named is T2, PHD finger from hPygo1 (hPHD) (Homo sapiens, UniProt Q9Y3Y4).
T2 construct: hPygo1 PHD (amino acids 333–402); GST (N, cleaved yes); made in house; host or cells: E. coli BL21-CodonPlus(DE3)-RIL
T2 sequence (Q9Y3Y4 333-402): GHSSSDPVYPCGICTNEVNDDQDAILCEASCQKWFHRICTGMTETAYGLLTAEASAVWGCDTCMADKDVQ
Kind of assay: ITC, histone tail peptides with free hPHD. Type of assay: binding. To be noted: 15-mer peptides, ITC at 25 °C, pH 8.0. Here is the method:
Free PHD fingers were purified similarly to the PHD-HD1 complexes, and purity was assessed by SDS-PAGE prior to use for ITC.
as §1
(In general: In ITC the heat of successive injections is recorded.)

Assay [3] concerns the target T3, hPHD-HD1 complex (hPygo1 PHD with hBCL9 HD1) (Homo sapiens, UniProt O00512+Q9Y3Y4).
T3 construct: hPygo1 PHD (amino acids 333–402); GST (N, cleaved yes); made in house; host or cells: E. coli BL21-CodonPlus(DE3)-RIL
T3 sequence (Q9Y3Y4 333-402): T2 sequence (Q9Y3Y4 333-402)
T3 sequence (O00512 177-205 partner limits assumed): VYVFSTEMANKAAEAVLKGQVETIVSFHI
Briefly: ITC, histone tail peptides with human PHD-HD1 complex. It counts as binding. To be noted: ITC at 25 °C. The protocol: as §1

The subject of assay [4] is PHD from hPygo1 (GST-hPHD). Kind of assay: In vitro pull-down, MBP-tagged HD1 deletions with GST-hPHD. It counts as binding, human. Conditions: systematic N- and C-terminal deletions of HD1, MBP-tagged. Here is the method: Figure S2. Deletion Analysis of hBCL9 HD1 and Binding to hPygo1 PHD
(A) Systematic N- and C-terminal deletions of HD1 from hBCL9 (underlined), individually and combined (bottom); sequences between, and including, red (marking deletion end-points) were tested for their in vitro binding to PHD from hPygo1 (B), as summarized on […]
(B) In vitro pull-down assays, to test binding between MBP-tagged HD1 deletions and GST-hPHD; positive controls, Lgs HD1, hBCL9 AKV-TER; negative controls, GST, MBP-ACTN2; IP, input (5%); G, GST; PHD, GST-hPHD. […]

Read-outs that look alike come from different tables or passages of the source.

As usually defined, the Kd is a measure of binding affinity in units of concentration. For the compound `CNCCCC[C@H](NC(=O)[C@@H](NC(=O)[C@H](CCCNC(=N)N)NC(=O)[C@H](C)N)[C@@H](C)O)C(=O)N[C@@H](CCC(N)=O)C(=O)N[C@H](C(=O)N[C@@H](C)C(=O)N[C@@H](CCCNC(=N)N)C(=O)N[C@@H](CCCCN)C(=O)N[C@@H](CO)C(=O)N[C@H](C(=O)NCC(=O)NCC(=O)N[C@@H](CCCCN)C(=O)N[C@@H](C)C(=O)O)[C@@H](C)O)[C@@H](C)O` [15-mer H3K4me1], the dissociation constant Kd in assay [1] (Figure 3B, dPHD-HD1, ITC at 25 °C, pH 8.0, 100 mM NaCl, 25 mM Tris-HCl, 10 μM ZnCl2, 2 mM β-mercaptoethanol, 50µM protein, 0.5-1.0mM peptide, one-site model, ± fitting error, read-out: Binding constant (Kd)) came out at 21.5 ± 0.3 µM; in assay [2], 9 µM; in assay [3] (human PHD-HD1 complex, pH 8.0, read-out: Kd) it was 2.9 µM.
The compound `C[C@H](N)C(=O)N[C@@H](CCCNC(=N)N)C(=O)N[C@H](C(=O)N[C@@H](CCCC[N+](C)(C)C)C(=O)N[C@@H](CCC(N)=O)C(=O)N[C@H](C(=O)N[C@@H](C)C(=O)N[C@@H](CCCNC(=N)N)C(=O)N[C@@H](CCCCN)C(=O)N[C@@H](CO)C(=O)N[C@H](C(=O)NCC(=O)NCC(=O)N[C@@H](CCCCN)C(=O)N[C@@H](C)C(=O)O)[C@@H](C)O)[C@@H](C)O)[C@@H](C)O` [15-mer H3K4me3] came in with a Kd in assay [1] of 23 µM.
On to “9-mer H3K4me2 A1>G: 9-mer whose A1 was substituted with a glycine (A1 > G) (GRTKQTARK; dimethyl-lysine at K4)”, for which the “binding (in words)” value in assay [3] (human PHD-HD1 complex, pH 8.0) is recorded as “reduced to almost background levels”.
Take “9-mer H3K4me2 ΔA1: truncated H3K4me2 peptide spanning R2-K9 (without A1, ΔA1) (RTKQTARK; dimethyl-lysine at K4)”: the “binding (in words)” value in assay [3] (human PHD-HD1 complex, pH 8.0) is reported as “No binding was detectable”.
With `C[C@H](N)C(=O)N[C@@H](CCCNC(=N)N)C(=O)N[C@H](C(=O)N[C@@H](CCCCN(C)C)C(=O)N[C@@H](CCC(N)=O)C(=O)N[C@H](C(=O)N[C@@H](C)C(=O)N[C@@H](CCCNC(=N)N)C(=O)N[C@@H](CCCCN)C(=O)O)[C@@H](C)O)[C@@H](C)O` [9-mer H3K4me2], in assay [3] (Figure 3B, hPHD-HD1, pH 8.0, 100 mM NaCl, 25 mM Tris-HCl, 10 μM ZnCl2, 2 mM β-mercaptoethanol, 50µM protein, 0.5-1.0mM peptide, one-site model, ± fitting error, read-out: Binding constant (Kd)), the Kd came out at 11.4 ± 1.1 µM.
“V177-I205: minimal PHD-interacting fragment of HD1 from hBCL9 (VYVFSTEMANKAAEAVLKGQVETIVSFHI; HD1; UniProt O00512 177-205, looked up, fragment)”: the “PHD binding of HD1 fragment (in words)” value in assay [4] was “minimal PHD-interacting fragment”.
As to `C[C@H](N)C(=O)N[C@@H](CCCNC(=N)N)C(=O)N[C@H](C(=O)N[C@@H](CCCCN(C)C)C(=O)N[C@@H](CCC(N)=O)C(=O)N[C@H](C(=O)N[C@@H](C)C(=O)N[C@@H](CCCNC(=N)N)C(=O)N[C@@H](CCCCN)C(=O)N[C@@H](CO)C(=O)N[C@H](C(=O)NCC(=O)NCC(=O)N[C@@H](CCCCN)C(=O)N[C@@H](C)C(=O)O)[C@@H](C)O)[C@@H](C)O)[C@@H](C)O` [15-mer H3K4me2], the dissociation constant (Kd) in assay [1] (Figure 3A panel, dPHD-HD1, 15-mer peptide, ITC at 25 °C, 100 mM NaCl, 25 mM Tris-HCl pH 8.0, 10 μM ZnCl2, 2 mM β-mercaptoethanol, 50µM protein, 0.5-1.0mM peptide, one-site model, ± fitting error, read-out: Kd) stood at 12.6 ± 0.5 µM; in assay [2], 2.4 µM; in assay [3] (Figure 3A panel, hPHD-HD1, 15-mer peptides, 100 mM NaCl, 25 mM Tris-HCl pH 8.0, 10 μM ZnCl2, 2 mM β-mercaptoethanol, 50µM protein, 0.5-1.0mM peptide, one-site model, ± fitting error, read-out: Kd) it was 0.93 ± 0.01 µM.
